Source: paper PMC8359193, “Summary of reference chemicals evaluated by the fish short‐term reproduction assay, OECD TG229, using Japanese Medaka, Oryzias latipes” (Journal of Applied Toxicology, 2021)

Key:
[1] = test system: Japanese medaka (Oryzias latipes); assay: Fish short-term reproduction assay (FSTRA, OECD TG229), 21-day flow-through exposure; conditions: for Fertility rate (%) / Mortality (%) Female / Mortality (%) Male / Number of fertilized eggs / Number of total eggs / SSC Female / SSC Male / VTG (ng/mg of liver) Female / VTG (ng/mg of liver) Male: 21 days; for GSI Female / GSI Male / HSI Female / HSI Male / Length Female / Length Male / Weight Female / Weight Male: at completion of exposure
Protocol: The experimental studies on the FSTRA for the 16 chemicals were conducted in two laboratories in Japan, the National Institute for Environmental Studies (NIES, Lab‐1) and the Institute of Environmental Ecology, IDEA Consultants Inc. (Lab‐2), in accordance with OECD TG229 (OECD, [2012a]) (Table 1).
The NIES‐R strain of Japanese medaka (O. latipes), one of the orange‐red varieties, was used in all the 16 chemical studies. For the studies, healthy and mature male and female medakas at 16 ± 2 weeks old were selected from a single‐stock population, which were bred within the test facilities. The test fish were maintained in conditions similar to the assay for at least 7 days, and spawning status was checked during the acclimation period. On the day the chemical exposure commenced, to ensure balanced distribution of test fish between the treatment groups for the reproductive status of the fish, the replicate vessels (fish tanks), with each containing three male and female medaka, were distributed to each treatment and control group, for example, by a randomized block design based on the number of fertilized eggs laid in the last 5–7 days during the acclimation, in each assay.
The water solubility of the test chemical was also taken into consideration when deciding the highest test concentration. To set the lower concentrations, a spacing factor ranging between two and five was used. All assays included a dilution water control (DWC).
Test solutions at the selected concentrations were prepared by diluting a stock solution, which was prepared by an adequate method depending on the physicochemical properties of the test chemicals, for example, by simply mixing the test chemical in dilution water by stirring and/or sonicating for an appropriate time or by using a solid–liquid saturator. In the two laboratories, flow‐through exposure systems, in which a series of test solutions at the target concentrations can be continuously prepared and delivered to test vessels at controlled flow rates (Haselman et al., [2016]; Watanabe et al., [2017]), were used for the exposure experiments.
In the FSTRA, three mature adult males and females in a test vessel were exposed together to the test chemicals in flow‐through condition for 3 weeks. In all the assays, each treatment group, including the DWC group, contained four replicate tanks. During the exposure period, the fish were fed a sufficient amount of live brine shrimp nauplii (newly hatched Artemia sp.) for daily spawning ad libitum. Fecal material in the tanks was appropriately removed by siphoning after feeding. Water temperature of test solutions was recorded for at least one vessel in each treatment and control group every day and for all vessels at least once a week. Furthermore, dissolved oxygen and pH of test solutions were measured for all test vessels at least once a week. Mortality and abnormal behavior and appearance in the fish exposed to test chemicals were daily observed, and any fish that died were removed from the tank as soon as possible. To assess the reproductive status, all eggs females spawned were collected every day. At the completion of the chemical exposure, surviving fish in each tank were sampled.
The eggs females released on the bottom of the tank were collected by siphoning, and the egg clutches still on female abdomen were carefully picked from the body of the females captured using a small net. All the eggs collected were microscopically observed and separately counted for fertilized and unfertilized.

Japanese medaka = conditions: long-term exposure, MMT; ref Flynn et al. (2017); cited from earlier work

Which “LOEC on VTG induction in male (in molarity)” value ([1]; hepatic VTG, 21-day exposure) does the source give for C[C@]12CC[C@@H]3c4ccc(O)cc4CC[C@H]3[C@@H]1CC[C@@H]2O [E2, 17β‐Estradiol] here?
The value was 81 pM.

And the “LOEC for VTG induction in males” value ([1]; hepatic VTG, 21-day exposure, measured conc.)?
The value was 22.1 ng/L.

What about the “LOEC on male VTG induction: times smaller than the LOEC for CMP” value ([1]; in vivo) of the same compound?
The value was “more than 8,000 times”.

What about the “effect on male GSI, in words” value ([1]; in vivo) of the same compound?
The value was “significant decreasing”.

And the “Fertility rate (%)” value ([1]; measured conc. 22.1 ng/L)?
Its value is 90%.

And the “Mortality (%) Female” value ([1]; measured conc. 22.1 ng/L)?
The value was 0%.

What about the “Mortality (%) Male” value ([1]; measured conc. 22.1 ng/L) of the same compound?
Its value is 0%.

And the “Number of fertilized eggs” value ([1]; measured conc. 22.1 ng/L)?
The value was 18.

And the “Number of total eggs” value ([1]; measured conc. 22.1 ng/L)?
Its value is 20 ± 2.9 /female/day.

What about the “SSC Female” value ([1]; measured conc. 22.1 ng/L) of the same compound?
The value was 0 ± 0.

What about the “SSC Male” value ([1]; measured conc. 22.1 ng/L) of the same compound?
The value was 109 ± 10.

What about the “VTG (ng/mg of liver) Female” value ([1]; measured conc. 22.1 ng/L) of the same compound?
The value was 3,420 ± 991 ng/mg of liver.

What about the “VTG (ng/mg of liver) Male” value ([1]; measured conc. 22.1 ng/L) of the same compound?
The value was 424 ± 379 ng/mg of liver.

And the “GSI Female” value ([1]; measured conc. 22.1 ng/L)?
Its value is 10.3%.

What about the “GSI Male” value ([1]; measured conc. 22.1 ng/L) of the same compound?
The value was 0.82%.

What about the “HSI Female” value ([1]; measured conc. 22.1 ng/L) of the same compound?
Its value is 4.4%.

What about the “HSI Male” value ([1]; measured conc. 22.1 ng/L) of the same compound?
Its value is 2.0%.

What about the “Length Female” value ([1]; measured conc. 22.1 ng/L) of the same compound?
Its value is 36.8 mm.

What about the “Length Male” value ([1]; measured conc. 22.1 ng/L) of the same compound?
The value was 36.4 mm.

What about the “Weight Female” value ([1]; measured conc. 22.1 ng/L) of the same compound?
The value was 573 mg.

What about the “Weight Male” value ([1]; measured conc. 22.1 ng/L) of the same compound?
Its value is 507 mg.

And the “Fertility rate (%)” value ([1]; measured conc. 115 ng/L)?
Its value is 95%.

What about the “Mortality (%) Female” value ([1]; measured conc. 115 ng/L) of the same compound?
Its value is 8%.

And the “Mortality (%) Male” value ([1]; measured conc. 115 ng/L)?
The value was 8%.

What about the “Number of fertilized eggs” value ([1]; measured conc. 115 ng/L) of the same compound?
The value was 21.

What about the “Number of total eggs” value ([1]; measured conc. 115 ng/L) of the same compound?
Its value is 22 ± 1.5 /female/day.

What about the “SSC Female” value ([1]; measured conc. 115 ng/L) of the same compound?
The value was 0 ± 0.

And the “SSC Male” value ([1]; measured conc. 115 ng/L)?
Its value is 112 ± 10.

What about the “VTG (ng/mg of liver) Female” value ([1]; measured conc. 115 ng/L) of the same compound?
The value was 5,500 ± 1,370 ng/mg of liver.

What about the “VTG (ng/mg of liver) Male” value ([1]; measured conc. 115 ng/L) of the same compound?
Its value is 13,400 ± 1900 ng/mg of liver.

And the “GSI Female” value ([1]; measured conc. 115 ng/L)?
The value was 11.4%.

What about the “GSI Male” value ([1]; measured conc. 115 ng/L) of the same compound?
The value was 0.67%.

And the “HSI Female” value ([1]; measured conc. 115 ng/L)?
The value was 4.3%.

And the “HSI Male” value ([1]; measured conc. 115 ng/L)?
The value was 2.5%.

What about the “Length Female” value ([1]; measured conc. 115 ng/L) of the same compound?
Its value is 35.6 mm.

And the “Length Male” value ([1]; measured conc. 115 ng/L)?
The value was 35.8 mm.

What about the “Weight Female” value ([1]; measured conc. 115 ng/L) of the same compound?
The value was 517 mg.

What about the “Weight Male” value ([1]; measured conc. 115 ng/L) of the same compound?
The value was 512 mg.

And the “Fertility rate (%)” value ([1]; measured conc. 553 ng/L)?
The value was 85%.

And the “Mortality (%) Female” value ([1]; measured conc. 553 ng/L)?
The value was 17%.

And the “Mortality (%) Male” value ([1]; measured conc. 553 ng/L)?
Its value is 8%.

What about the “Number of fertilized eggs” value ([1]; measured conc. 553 ng/L) of the same compound?
The value was 9.4.

What about the “Number of total eggs” value ([1]; measured conc. 553 ng/L) of the same compound?
Its value is 13 ± 1.9 /female/day.

What about the “SSC Female” value ([1]; measured conc. 553 ng/L) of the same compound?
Its value is 0 ± 0.

And the “SSC Male” value ([1]; measured conc. 553 ng/L)?
The value was 97 ± 14.

And the “VTG (ng/mg of liver) Female” value ([1]; measured conc. 553 ng/L)?
Its value is 18,900 ± 5,910 ng/mg of liver.

And the “VTG (ng/mg of liver) Male” value ([1]; measured conc. 553 ng/L)?
Its value is 19,900 ± 3,570 ng/mg of liver.

And the “GSI Female” value ([1]; measured conc. 553 ng/L)?
The value was 11.2%.

What about the “GSI Male” value ([1]; measured conc. 553 ng/L) of the same compound?
The value was 0.31%.

What about the “HSI Female” value ([1]; measured conc. 553 ng/L) of the same compound?
Its value is 4.4%.

And the “HSI Male” value ([1]; measured conc. 553 ng/L)?
The value was 3.2%.

And the “Length Female” value ([1]; measured conc. 553 ng/L)?
Its value is 35.0 mm.

And the “Length Male” value ([1]; measured conc. 553 ng/L)?
Its value is 35.0 mm.

And the “Weight Female” value ([1]; measured conc. 553 ng/L)?
The value was 512 mg.

What about the “Weight Male” value ([1]; measured conc. 553 ng/L) of the same compound?
Its value is 488 mg.

And the “effect on fecundity (number of total eggs), in words” value ([1]; within the test concentrations, 21-day exposure)?
The value was “significant decrease”.

And the “LOEC on male VTG induction” value (Japanese medaka)?
Its value is 28 ng/L.
